Literature values in US12201623B1, “Composition and method for preventing long-term COVID-19 morbidity” (priority 2021, dated 2025).

System: SARS-COV-2
Conditions: peripheral blood monocytes purified from healthy volunteers

**Q.** Which SARS-COV-2 replication does the source give for `COC1=C(OC)C(=O)C(CCCCCCCCCC[P+](c2ccccc2)(c2ccccc2)c2ccccc2)=C(C)C1=O` [MitoQ] here?
**A.** suppressed

**Q.** With `CC(=O)N[C@@H](CS)C(=O)O` [NAC] as the molecule, how does the SARS-COV-2 replication read?
**A.** suppressed
